Experimental findings from patent US20250122567A1, “Methods of Identifying and Treating Subjects having Inflammatory Subphenotypes of Asthma” (National Jewish Health, priority 2015, published 2025) are described below.

Assay [1] has as its system DPP4. As to the kind of experiment: IL-13 treatment of ALI differentiated bronchial epithelial cells, DPP4 expression. In kind it is cell-based. The note with it: IL-13 10 ng/ml, 24 hours. As to the method: FIGS. 12A and 12B show pairs of Air-liquid interface (ALI) differentiated bronchial epithelial cells (BEC) from 5 donors that were treated for 24 hours with IL-13 cytokine (10 ng/ml) and vehicle control. (FIG. 12A) RNA was extracted from all control and IL-13 treated ALI membranes. RNA was used in 5′ nuclease qPCR assays to determine DPP4 and housekeeping gene expression. Normalized DPP4 expression for the control and IL-13 treated cultures of a subject are connected by a line. Well-differential nasal airway epithelial cultures were generated and tested for a single donor denoted by red points. (FIG. 12B) Western blot of cell lysates for DPP4 in control and IL-13 treated BECs from all five donors.

Assay [2] deals with HRV-16. Briefly: HRV-16 infection of ALI differentiated airway epithelial cells treated with IL-13. The format is cell-based, human rhinovirus-16. The note with it: IL-13 10 ng/ml for final 10 days of differentiation, BECs and NECs, vs vehicle.

Take “IL-13: Th2 cytokine used to treat airway epithelial cell cultures (10 ng/ml)”: in assay [1] (ALI differentiated BEC from 5 donors, qPCR, vs vehicle control), the “DPP4 gene expression in airway epithelial cells” value is listed as “strongly induced”. Moreover, the “DPP4 protein expression in airway epithelial cells” value in assay [1] (BEC cell lysates from five donors, Western blot, vs control) was “strongly induced”. In addition, in assay [2], the “HRV-16 infection (mRNA) of ALI differentiated airway epithelial cells” value is given as “decreases HRV-16 infection”.
